Source: patent EP0314302A2, “Herbicidal o-carbomethoxy-sulfonylureas” (E.I. DU PONT DE NEMOURS AND COMPANY, priority 1987, dated 1989)

Assays:
Annual ryegrass = assay: Test 10 postemergence safety to crops and weed control; assay type: in vivo, Lolium multiflorum; conditions: 16 g/ha, scale 0-100
Description: The object of these tests was to evaluate the compound of this invention for postemergence safety to crops and weed control. Seedling and budded Macedine grapes were grown in 11.4-cm pots. Flax, green foxtail (Setaria viridis), "Morex" barley, wild oats (Avena fatua), "Era" wheat, annual ryegrass (Lolium multiflorum), wild radish (Raphanus raphanistrum), rape, sunflower, chickweed (Stellaria media) and wild buckwheat (Polygonum convolvulus) were seeded in windowsill pots.
The plants were sprayed postemergence with Compound I in a non-phytotoxic solvent. Plants were visually rated 15 and 27 days after treatment (DAT). Injury and weed control ratings were based on the scale of 0 to 100 where 0 = no effect, 20 minimal control and 100 = complete control.

Bindweed [1] = assay: Test 11 windowsill flats, postemergence; assay type: in vivo, Convolvulus spp.; conditions: Postemergence 32 g/ha, 0.25% X-77 surfactant, scale 0-100
Description: (§1) Budded citrus seedlings were planted in 30-liter plastic pots which were also seeded with sandbur, guineagrass, narrowleaf panicum, common ragweed, yellow nutsedge, purple nutsedge and bindweed. Compound I was applied preemergence and postemergence to the weeds. Treatments were sprayed to simulate the trunk-to-trunk herbicide application method used in some citrus groves. The compound was also applied postemergence to weeds grown in windowsill flats. The flats were filled with planting medium and seeded with morningglory (Ipomoea spp.). purple nutsedge (Cyperus rotundus), pigweed (Amaranthus spp.), bindweed (Convolvulus spp.), narrowleaf panicum (Panicum maximum), common ragweed (Ambrosia artemisiifolia), sandbur (Cenchrus echinatus), itchgrass (Rottboellia exaltata), johnsongrass (Sorghum halepense), guineagrass (Panicum maximum), smooth crabgrass (Digitaria ischaemum), broadleaf signalgrass (Brachiaria platyphylla), bermudagrass (Cynodon dactylon), goosegrass (Eleusine indica), large crabgrass (Digitaria sanguinalis) and yellow nutsedge (Cyperus esculentus).
(§2) The compound was formulated and sprayed with 0.25% X-77 surfactant in water. Plants were visually rated 21 and 29 days after treatment and compared with appropriate controls. Injury ratings were based on the scale of 0 to 100, where 0 indicates no effect, 20 indicates minimum effect and 100 indicates complete control. […]

Sugarcane = assay: Test 9 postemergence; assay type: in vivo; conditions: scale 0-100
Bindweed [2] = assay: Test 11 citrus pots, postemergence to the weeds; assay type: in vivo, Convolvulus spp.; conditions: Postemergence 32 g/ha, 0.25% X-77 surfactant, scale 0-100
Description: as §1, §2

Purple nutsedge [3] = assay: Test 11 citrus pots, preemergence to the weeds; assay type: in vivo, Cyperus rotundus; conditions: Preemergence 32 g/ha; 0.25% X-77 surfactant; scale 0-100
Description: as §1, §2

Groundsel = assay: Test 7 postemergence; assay type: in vivo, Senecio spp; conditions: scale 0-100
Description: (§3) Individual 11.4-cm plastic pots filled with planting medium were seeded with rape, wild radish (Raphanus raphanistruna). tansy mustard (Descurainia pinnata), ball mustard (Neslia paniculata), black mustard (Brassica nigra), yellow mustard, brown mustard, lentils, safflower, flax, sunflower, peanut, vetch, alfalfa, field bean, pea, violet (Viola spp), Kochia (Kochia spp), Russian thistle (Salsola spp), Matricaria spp, groundsel (Senecio spp), shepherdspurse (Capsella bursa-pastoris), nightshade (Solanum spp), sowthistle (Sonchus spp), sugar beet, wheat, "Bonanza" barley and "Morex" barley, Kentucky bluegrass (Poa pratensis), red clover (Trifolium pratense), dandelion (Taraxacum spp) and buckhorn plantain (Plantago lanceolata).
(§4) Plants were treated postemergence with the compound formulated with a non-phytotoxic carrier. Plants were visually rated 18 days after treatment (DAT). Response ratings were based on the scale of 0 to 100 where 0 = no effect, 20 = minimal injury and 100 = complete control.

Red clover = assay: Test 7 postemergence; assay type: in vivo, Trifolium pratense; conditions: scale 0-100
Description: as §3, §4

Salsoa kali = assay: Test 1 greenhouse, postemergence; assay type: in vivo; conditions: 21 days, scale 0-100
Description: (§5) Seeds of Bromus tectorum, Kochia scoparia, Salsoa kali, Avena fatua, Convolvulus arvensis, Secale cereale, Setaria viridis and Triticum aestivum were placed in 26-cm plastic pans containing a pasteurized sandy loam soil (pH 6.5, 1% organic matter). Plantings were maintained in the greenhouse for 18-28 days at which time the postemergence treatments were applied using a nonphytotoxic solvent as the carrier for the herbicide. The preemergence segment of the test was seeded immediately before herbicide application using Bromus tectorum, Kochia scoparia, Polygonum convolvulus, Salsoa kali, Avena fatua, Convolvulus arvensis, Secale cereale, Setaria viridis, Aegilops cylindrica, Amaranthus retroflexus, Chenopodium album, Hordeum vulgare, Triticum aestivum, Sorghum bicolor, and Zea mays. All treatments were maintained in the greenhouse for an additional 21 days at which time visual assessment of weed control was determined using a scale of 0 to 100 for each species where 0 represented no control and 100 represented complete control.

Kochia scoparia = assay: Test 1 greenhouse, postemergence; assay type: in vivo; conditions: 21 days, scale 0-100
Description: as §5

Setaria viridis = assay: Test 1 greenhouse, postemergence; assay type: in vivo; conditions: 21 days, scale 0-100
Description: as §5

Convolvulus arvensis = assay: Test 1 greenhouse, postemergence; assay type: in vivo; conditions: 21 days, scale 0-100
Description: as §5

Wild radish = assay: Test 7 postemergence; assay type: in vivo, Raphanus raphanistruna; conditions: scale 0-100
Description: as §3, §4

Purple nutsedge [4] = assay: Test 11 citrus pots, postemergence to the weeds; assay type: in vivo, Cyperus rotundus; conditions: Postemergence 32 g/ha, 0.25% X-77 surfactant, scale 0-100
Description: as §1, §2

Coffee = assay: Test 9 postemergence; assay type: in vivo; conditions: scale 0-100
Description: Plastic windowsill pots containing planting medium were seeded with bahiagrass, bindweed (Convolvulus spp), guinea grass (Panicum maximum), large crabgrass (Digitaria sanguinalis) and pigweed (Amaranthus spp). Individual 15-cm plastic pots contained sandbur (Cenchrus echinatus), Mikania cordata, Boston fern (Nephrolepis exalata), quackgrass (Agropyron repens), elephantgrass (Pennisetum purpureum) and sowthistle (Sonchus spp) plants.
Plants were treated postemergence with Compound I formulated in a non-phytotoxic solvent. Plants were visually rated 22 days after treatment (DAT). Injury and weed control ratings were based on the scale of 0 to 100 where 0 = no effect, 20 = minimal control and 100 = complete control.

Structure (SMILES): COC(=O)c1cccnc1S(=O)(=O)NC(=O)Nc1nc(OC)cc(OC)n1 [Compound I, 2-[[(4,6-dimethoxypyrimidin-2-yl)aminocarbonyl]aminosulfonyl]-3-pyridinecarboxylic acid, methyl ester]
- Plant Injury Rating 15 DAT (Annual ryegrass): 100
- Injury ratings (Bindweed [1]): 100
- Plant Injury Rating 22 DAT (Sugarcane; 8 g/ha): 10
- Plant Injury Rating 22 DAT (Sugarcane; 16 g/ha): 20
- Plant Injury Rating 22 DAT (Sugarcane; 32 g/ha): 30
- Injury ratings (Bindweed [2]): 100
- Injury ratings (Purple nutsedge [3]): 100
- Plant Injury Rating 18 DAT (Groundsel; 16 g/ha): 100
- Plant Injury Rating 18 DAT (Groundsel; 32 g/ha): 100
- Plant Injury Rating 18 DAT (Red clover; 16 g/ha): 100
- Plant Injury Rating 18 DAT (Red clover; 32 g/ha): 100
- visual assessment of weed control (Salsoa kali; 4 g/ha): 100
- visual assessment of weed control (Salsoa kali; 8 g/ha): 100
- visual assessment of weed control (Salsoa kali; 16 g/ha): 100
- visual assessment of weed control (Salsoa kali; 32 g/ha): 100
- visual assessment of weed control (Salsoa kali; 64 g/ha): 100
- visual assessment of weed control (Salsoa kali; 125 g/ha): 100
- visual assessment of weed control (Kochia scoparia; 4 g/ha): 100
- visual assessment of weed control (Kochia scoparia; 8 g/ha): 100
- visual assessment of weed control (Kochia scoparia; 16 g/ha): 100
- visual assessment of weed control (Kochia scoparia; 32 g/ha): 100
- visual assessment of weed control (Kochia scoparia; 64 g/ha): 100
- visual assessment of weed control (Kochia scoparia; 125 g/ha): 100
- visual assessment of weed control (Setaria viridis; 4 g/ha): 90
- visual assessment of weed control (Setaria viridis; 8 g/ha): 90
- visual assessment of weed control (Setaria viridis; 16 g/ha): 100
- visual assessment of weed control (Setaria viridis; 32 g/ha): 100
- visual assessment of weed control (Setaria viridis; 64 g/ha): 100
- visual assessment of weed control (Setaria viridis; 125 g/ha): 100
- visual assessment of weed control (Convolvulus arvensis; 4 g/ha): 90
- visual assessment of weed control (Convolvulus arvensis; 8 g/ha): 100
- visual assessment of weed control (Convolvulus arvensis; 16 g/ha): 100
- visual assessment of weed control (Convolvulus arvensis; 32 g/ha): 100
- visual assessment of weed control (Convolvulus arvensis; 64 g/ha): 100
- visual assessment of weed control (Convolvulus arvensis; 125 g/ha): 100
- Plant Injury Rating 18 DAT (Wild radish; 16 g/ha): 100
- Plant Injury Rating 18 DAT (Wild radish; 32 g/ha): 100
- Injury ratings (Purple nutsedge [4]): 90
- Plant Injury Rating 22 DAT (Coffee; 8 g/ha): 0
- Plant Injury Rating 22 DAT (Coffee; 16 g/ha): 0
- Plant Injury Rating 22 DAT (Coffee; 32 g/ha): 0
